Reference: a melting point compilation (Tetko et al.)

Structure (SMILES) | melting point
COc1cc(OC(C)=O)c2c(=O)c(O[C@@H]3O[C@H](COC(C)=O)[C@H](OC(C)=O)[C@H](OC(C)=O)[C@@H]3O[C@@H]3O[C@H](C)[C@H](OC(C)=O)[C@H](OC(C)=O)[C@@H]3OC(C)=O)c(-c3ccc(OC(C)=O)c(OC(C)=O)c3)oc2c1 | 117 to 120 °C
O=[N+]([O-])c1cccc(C=Cc2ccccc2)c1 | 102 °C
CC(=O)O[C@]12CC[C@@H](C(C)(C)C)C[C@H]1O[C@@H]2c1c(F)c(F)c(F)c(F)c1F | 83 °C
O=C(C=Cc1ccccc1O)c1cccc(C(=O)C=Cc2ccccc2O)c1 | 150 °C
O=C(CCCC(=O)c1ccccc1)c1ccccc1 | 64 to 67 °C
O=Nc1ccc2c(O)ccc(N=O)c2c1O | 250 °C
CC(=O)c1cc(Cl)cc(Cl)c1O | 97 °C
CCNC1=NC(=O)C(c2ccccc2)O1 (stereo not drawn) | 148 °C
CC(C)NC(=O)CC#N | 62 to 65 °C
FC(F)(F)c1ccc(Cl)c(C(F)(F)F)c1 | -59 °C
O=[N+]([O-])/C=C/c1ccccc1 | 58 °C
COC(=O)c1ccc(C#Cc2ccccc2)o1 | 79 to 82 °C
O=c1[nH]c2ccccc2n1CCCCl | 115 to 125 °C
O=S(=O)(Cl)c1sc(-c2ccccc2)nc1-c1ccccc1 | 173 to 174 °C
COc1ccccc1C1Nn2c(nnc2-c2ccc([N+](=O)[O-])cc2)S1 (stereo not drawn) | 152 °C
CCOC(=O)c1csc(-c2ccc(Br)s2)n1 | 97 to 101 °C
O=C(O)c1cc(-c2ccccc2)on1 | 192 to 200 °C
CNCC(O)c1ccccc1 (racemic) | 74 to 76 °C
Nc1cccc(Br)n1 | 90 °C
CCCCOCCOCCOCCO | -30 °C
CCOC(=O)Nc1cccc(OC(=O)Nc2ccccc2)c1 | 120 °C
C=C(Br)c1ccccc1 | -44 °C
O=C1/C(=C\c2ccc(Cl)cc2)SC(=S)N1CN1CCOCC1 | 149 °C
Nc1ccc(-c2cccnc2)cc1 | 115 to 118 °C
O=C(O)Cc1ccccc1I | 116 °C

Structure (SMILES) | melting point
O=C1OC(c2ccccc2)=NC1=Cc1ccco1 | 158 to 159 °C
COc1cc2c(cc1C(C)C)C(C(=O)O)C2 (stereo not drawn) | 86 °C
CCOC(=O)CSc1nc(C(C)(C)C)nn1C(=O)N(C)C | 53 °C
C=C(NC(C)=O)C(=O)OC | 50 °C
Cc1cc(O)cc(Br)c1 | 56.5 °C
Clc1cc(Cl)c2ccccc2n1 | 67.5 °C
CC(=O)N1CCc2ccc(N)cc21 | 182 to 185 °C
C=CC1CN2CCC1CC2C(O)c1ccnc2ccc(O)cc12 (stereo not drawn) | 202 °C
CC1CCCCC1NC(=O)Nc1ccccc1 (stereo not drawn) | 136 °C
COC(=O)c1c(OC)c(OC)c(C(=O)OC)c(C(=O)OC)c1OC | 52 to 55 °C
CCCC(C)O (stereo not drawn) | -73 °C
Cc1ccc2ncccc2c1 | -22 °C
N#CCS(=O)(=O)c1cccs1 | 84 °C
Cc1ccc(NC(=O)C(F)(F)C(F)(F)C(F)(F)C(F)(F)C(F)(F)C(F)(F)C(F)(F)C(F)(F)F)cc1C | 111 °C
COc1ccccc1C=C1C(=O)NN=C1c1c(O)c2ccccc2n(C)c1=O | 266 °C
CC(CCC(=O)O)n1nc2ccccc2n1 (stereo not drawn) | 73 °C
CC(=O)N1c2ccccc2CC1c1ccccc1 (stereo not drawn) | 129 °C
COc1ccc(CN)c(F)c1F | 34 °C
O=C(c1nn2c(nc(=O)c3ccccc32)s1)c1cccc2ccccc12 | 241 °C
Cn1c(=O)c(C2=NNC(=O)C2=Cc2ccccc2)c(O)c2ccccc21 | 283 °C
O=C(c1ccccc1)c1ccc(O)c(O)c1 | 144 to 148 °C
CCOC(=O)c1c2ccccc2nn1C | 50 to 52 °C
NC(=O)C1CCCN1C(=O)COC(=O)c1ccccc1 (stereo not drawn) | 194 °C
OCCN1CCCCC1C(c1ccccc1)c1ccccc1 (stereo not drawn) | 106 °C
OCc1cc(OCc2ccccc2)cc(OCc2ccccc2)c1 | 78 to 82 °C

Structure (SMILES) | melting point
Cc1cc(C)c(C[S+]([O-])Cc2c(C)cc(C)cc2C)c(C)c1 | 210 °C
FC(F)(F)c1nn2c(=S)nc(-c3ccccc3)nc2s1 | 222 °C
O=C(O)CCC(=O)OOC(=O)CCC(=O)O | 127 °C
O=C(N=C=S)c1ccccc1 | 128 to 131 °C
CCOC(=O)c1cc(C(=O)OCC)cc(C(=O)OCC)c1 | 134 °C
COC(=O)C1(S(=O)(=O)c2ccc([N+](=O)[O-])cc2)CC1 | 127 °C
NC(=S)c1csc2ccccc12 | 121 to 124 °C
CC(OC/C(=N\NC(N)=O)c1ccccc1)=C(C#N)c1ccccc1 | 156 to 158 °C
COC(=O)N(C(=O)N1COC2(C(=O)OC)Cc3cc(Cl)ccc3C2=N1)c1ccc(OC(F)(F)F)cc1 (stereo not drawn) | 88.1 °C
Cn1cnc2c1c(=O)[nH]c(=O)n2C | 357 °C
O=[N+]([O-])c1ccc(NS(=O)(=O)c2ccc(Cl)c(C(F)(F)F)c2)c(Cl)c1 | 170 °C
O=C(O)c1nc(Cl)ccc1Cl | 151 °C
CC1=CCCC1C (stereo not drawn) | -118 °C
Oc1noc2nc3ccccc3nc12 | 320 to 325 °C
O=C(O)C=Cc1cc(Br)ccc1F | 195 to 199 °C
COc1ccc(Cl)cc1N=C=O | 60 to 62 °C
C1CCC(CCC2CCCCC2)CC1 | 11.5 °C
CCOC(=O)c1nn(-c2ccc(C)cc2)c(C)c1C(=O)c1noc(-c2ccc(Cl)cc2)c1S(=O)(=O)c1ccccc1 | 230 °C
O=C1CC2C(CC(OC(=O)c3ccccc3)C2COC(c2ccccc2)(c2ccccc2)c2ccccc2)O1 (single isomer, unassigned; (-)) | 183 to 185 °C
COc1ccccc1Nc1[nH]c(=S)nnc1-c1ccccc1 | 241 to 242 °C
N#CCCCCCC#N | -31.4 °C
O=C(CCl)N(c1ccccc1)C1CCCCC1 | 103 to 105 °C
C=C1CC2C3C=C(C)C4=CC(=O)CCC4(C)C3CCC2(C)C1(OC(C)=O)C(C)=O (stereo not drawn) | 224 °C
COc1cc2c(c(O)c1OC)CNCC2 | 188 °C
Cc1nc(CCl)c(C)o1 | 34 to 37 °C

Structure (SMILES) | melting point
Clc1ccc2oc3c(Cl)c(Cl)c(Cl)c(Cl)c3c2c1 | 178 °C
FC(F)(F)c1ccc(Br)nc1 | 46 to 47 °C
Nc1sccc1-c1nc2ccccc2s1 | 138 to 140 °C
O=C(Cl)c1cc(-c2cccs2)on1 | 77 to 78 °C
Cc1nc(CC(=O)O)cs1 | 124 to 125 °C
COc1ccccc1/N=N/c1c(N)nn2c(-c3ccccc3)cc(=O)[nH]c12 | 303 to 305 °C
NS(=O)(=O)c1ccc(SCCCCCO)cc1 | 103 °C
O=C(CCl)Nc1ccc(Br)cc1 | 136 to 137 °C
CCOC(=O)c1ccc([N+](=O)[O-])cc1NC(=O)c1ccccc1 | 179 °C
CCN1C(=O)CCC1=O | 26 °C
CC(C)(C)c1cc2c(O)c(c1)Cc1cc(C(C)(C)C)cc(c1O)Cc1cc(C(C)(C)C)cc(c1O)Cc1cc(C(C)(C)C)cc(c1O)Cc1cc(C(C)(C)C)cc(c1O)C2 | 310 to 312 °C
O=C1C(=C2C=Cc3ccccc3N2)C(=O)c2ccccc21 | 240 to 241 °C
Oc1cc(C(F)(F)F)ccn1 | 159 °C
NC(=O)NC12CC3CC(CC(C3)C1)C2 | 250 °C
N#Cc1ccnc(Cl)c1 | 71 to 72 °C
S=C(SC(=S)N1CCCCC1)N1CCCCC1 | 110 °C
CN1CCN=C1C(C1=NCCN1C)C1=NCCN1C | 241 to 243 °C
COC1=CC(=O)NC1 | 132 °C
CSC(C)(C)C=NO | 21 °C
O=C(O)c1ccc(C(F)(F)F)nc1 | 192 °C
Cn1ccc2c(CO)cccc21 | 69 to 71 °C
COc1ccc2c3c([nH]c2c1)C1CC2C(CC(O)C(OC)C2C(=O)O)CN1CC3 (stereo not drawn) | 242 °C
C1CCCCCCCCCCCCC1 | 54 °C
Cc1ccc(Cl)cc1O | 73 °C
Fc1cc2c(cc1F)Oc1cc(Br)c(Br)cc1O2 | 210 °C

Structure (SMILES) | melting point
CC(C)OC(=O)OOC(=O)OC(C)C | 10 °C
COC(=O)C1(C(=O)OC)Cc2c(C)c(C)c(C)c(C)c2C(=O)O1 | 166 °C
Nc1ccc(CC(N)C(=O)O)cc1 (racemic) | 255 to 258 °C
Cc1cc(Br)cnc1F | 62 °C
COc1ccc(-c2ccc(C(=O)O)o2)cc1 | 176 to 178 °C
COc1ccc(C23C(=C(c4ccccc4)c4ccccc4)C4CC2C3(C)C4(C)C)cc1 (stereo not drawn) | 124 °C
N=C(N)NCCS(=O)(=O)O | 263 to 265 °C
O[C@@H]1CCCC[C@H]1NCc1ccccc1 (relative stereo) | 69 to 72 °C
COc1ccc(/N=N/c2c(N)nn3c(C(F)(F)F)cc(C)nc23)cc1 | 158 °C
CNCCC(Oc1ccc(C(F)(F)F)cc1)c1ccccc1 (stereo not drawn) | 180 °C
O=C(O)CS | -11 °C
CCCCCCCCC(NC(=O)OCC1c2ccccc2-c2ccccc21)C(=O)O (stereo not drawn) | 143 °C
COc1ccccc1C | -34.1 °C
Cc1cc(C)n(N=Cc2ccc(F)cc2)c(=O)c1C#N | 186 to 188 °C
c1ccc(-c2nc3ccccc3o2)cc1 | 103 °C
O=C1c2ccccc2C(=O)c2cc(CO)ccc21 | 192 to 197 °C
OCC1OC(n2cnc3c(NCc4ccccc4)ncnc32)C(O)C1O (stereo not drawn) | 184 to 186 °C
CC1=C(O)C(=O)CC(C)(C)C1 | 89 °C
NC(=O)C=Cc1ccc(C=CC(N)=O)cc1 | 320 °C
Nc1ncccc1[N+](=O)[O-] | 166 °C
CNC(=O)Oc1ccc(C)c(C)c1 | 79.5 °C
CCOC(=O)C(C)C(=O)CC(O)CC1CC=C(C)C1(C)C (stereo not drawn) | 132 °C
COc1cc(C=Cc2cc(/C=C/c3ccc(O)c(OC)c3)c([N+](=O)[O-])cc2[N+](=O)[O-])ccc1O | 251 °C
